Data on 23 molecules can be found in patent publication US11384060B2, “Amide compounds and use thereof” (ALPHALA CO., LTD., priority 2017, dated 2022).

The target in one assay is T1, glucagon receptor (GCGR) (Homo sapiens, UniProt P47871).
T1 construct: expressed in transfected cells; host or cells: CHO-K1 cells overexpressing GCGR (membrane fractions)
In words: I125-glucagon binding assay (competition, GCGR membrane fractions). To be noted: competition with I125-glucagon 0.0625 nM, membrane fractions of GCGR overexpressed CHO-K1 cells. In short, it runs like this:
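Membranes from CHO-K1 cells overexpressing GCGR, 7.5 μg/well in 50 mM Tris pH 7.4 with 0.5% BSA, were preincubated 5 min with serially diluted compounds, then given 0.0625 nM final I^125-glucagon for 30 min at 25° C. Bound label was filtered on PEI-coated GF/B and counted; IC50 by non-linear regression.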

Assay [1] addresses T2, glucagon receptor (GCGR) overexpressed CHO-K1 cells or human primary hepatocytes (Homo sapiens, UniProt P47871).
T2 construct: expressed in transfected cells; host or cells: GCGR overexpressed CHO-K1 cells or human primary hepatocytes (endogenous receptor)
In words: Glucagon cAMP inhibition assay (Cisbio cAMP Dynamic 2 HTRF). The assay is classed as cell-based. To be noted: inhibition of glucagon (EC50 concentration) induced cAMP production. In short, it runs like this:
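GCGR-overexpressing CHO-K1 cells or human primary hepatocytes in HBSS with 0.1% BSA and 800 nM IBMX, pre-incubated 30 min with serially diluted compounds (1% DMSO final), then stimulated 30 min at room temperature with glucagon at its EC50. cAMP measured by HTRF after 60 min lysis; IC50 by non-linear regression.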
A general note: In TR-FRET formats the signal depends on donor and acceptor labels being close together.

In general, IC50 refers to the midpoint of a concentration-inhibition curve. Read a low IC50 as inhibition by little substance.

T2 sequence (P47871 26-477): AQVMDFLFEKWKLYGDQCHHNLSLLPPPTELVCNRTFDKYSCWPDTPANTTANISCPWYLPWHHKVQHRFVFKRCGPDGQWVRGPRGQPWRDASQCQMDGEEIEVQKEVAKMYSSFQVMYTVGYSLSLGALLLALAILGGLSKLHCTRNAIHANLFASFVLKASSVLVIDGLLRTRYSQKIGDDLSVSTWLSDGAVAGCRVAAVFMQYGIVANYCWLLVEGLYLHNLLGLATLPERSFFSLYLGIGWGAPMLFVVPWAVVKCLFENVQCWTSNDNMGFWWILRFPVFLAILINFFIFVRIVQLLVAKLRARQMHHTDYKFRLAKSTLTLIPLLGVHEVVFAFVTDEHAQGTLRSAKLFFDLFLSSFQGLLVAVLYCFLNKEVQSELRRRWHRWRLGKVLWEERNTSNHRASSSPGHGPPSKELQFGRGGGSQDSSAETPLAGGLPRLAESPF
T1 sequence (P47871 26-477): as above

Molecule `CC(C)[C@@H](COc1cc(F)c(-c2ccc(C(F)(F)F)cc2Cl)c(F)c1)Nc1ccc(C(=O)NCCC(=O)O)cc1` [Compound 7-2, (S)-3-(4-((1-((2′-chloro-2,6-difluoro-4′-(trifluoromethyl)-[1,1′-biphenyl]-4-yl)oxy)-3-methylbutan-2-yl)amino)benzamido)propanoic Acid] returned an IC50 at glucagon receptor (GCGR) of 177 nM. For the same molecule, the “IC50 cAMP” value in assay [1] was determined as 201 nM.

`CC(C)[C@@H](COc1cc(F)c(-c2ccc(C(F)(F)F)cc2)c(F)c1)Nc1ccc(C(=O)NCCC(=O)O)cc1` [Compound 7-3, (S)-3-(4-((1-((2,6-difluoro-4′-(trifluoromethyl)-[1,1′-biphenyl]-4-yl)oxy)-3-methylbutan-2-yl)amino)benzamido)propanoic Acid] returned a half-inhibitory concentration (IC50) at glucagon receptor (GCGR) of 107 nM. The “IC50 cAMP” value in assay [1] came to 140 nM.

`CC(C)[C@@H](COc1cc(F)c(-c2ccc(C(F)(F)F)cc2F)c(F)c1)Nc1ccc(C(=O)NCCC(=O)O)cc1` [Compound 7-4, (S)-3-(4-((3-methyl-1-((2,2′,6-trifluoro-4′-(trifluoromethyl)-[1,1′-biphenyl]-4-yl)oxy)butan-2-yl)amino)benzamido)propanoic Acid] displayed a half-maximal inhibitory concentration (IC50) on glucagon receptor (GCGR) of 182 nM. In assay [1], the “IC50 cAMP” value is on record as 165 nM.

The molecule `CC(C)C[C@@H](COc1cc(F)c(-c2ccc(C(F)(F)F)cc2Cl)c(F)c1)Nc1ccc(C(=O)NCCC(=O)O)cc1` [Compound 7-5, (S)-3-(4-((1-((2′-chloro-2,6-difluoro-4′-(trifluoromethyl)-[1,1-biphenyl]-4-yl)oxy)-4-methylpentan-2-yl)amino)benzamido)propanoic Acid] had a half-inhibitory concentration (IC50) on glucagon receptor (GCGR) of 75 nM. In addition, in assay [1], the “IC50 cAMP” value turned out to be 811 nM.

Molecule `CC(C)C[C@@H](COc1cc(F)c(-c2ccc(C(F)(F)F)cc2)c(F)c1)Nc1ccc(C(=O)NCCC(=O)O)cc1` [Compound 7-6, (S)-3-(4-((1-((2,6-difluoro-4′-(trifluoromethyl)-[1,1′-biphenyl]-4-yl)oxy)-4-methylpentan-2-yl)amino)benzamido)propanoic Acid] registered an IC50 on glucagon receptor (GCGR) of 144 nM. Moreover, in assay [1], the “IC50 cAMP” value is given as 371 nM.

Consider `CC(C)C[C@@H](COc1cc(F)c(-c2ccc(C(F)(F)F)cc2F)c(F)c1)Nc1ccc(C(=O)NCCC(=O)O)cc1` [Compound 7-7, (S)-3-(4-((4-methyl-1-((2,2′,6-trifluoro-4′-(trifluoromethyl)-[1,1′-biphenyl]-4-yl)oxy)pentan-2-yl)amino)benzamido)propanoic Acid], for which, on glucagon receptor (GCGR), the IC50 was 307 nM. The “IC50 cAMP” value in assay [1] is on record as 689 nM.

On to `CC(C)C[C@@H](COc1cc(F)c(-c2ccc(Cl)cc2Cl)c(F)c1)Nc1ccc(C(=O)NCCC(=O)O)cc1` [Compound 7-8, (S)-3-(4-((1-((2′,4′-dichloro-2,6-difluoro-[1,1′-biphenyl]-4-yl)oxy)-4-methylpentan-2-yl)amino)benzamido)propanoic Acid], for which the half-inhibitory concentration (IC50) at glucagon receptor (GCGR) is 49 nM. Also, in assay [1], the “IC50 cAMP” value was found to be 329 nM.

Consider `CC(C)C[C@@H](COc1cc(F)c(-c2cc(Cl)cc(Cl)c2)c(F)c1)Nc1ccc(C(=O)NCCC(=O)O)cc1` [Compound 7-9, (S)-3-(4-((1-((3′,5′-dichloro-2,6-difluoro-[1,1′-biphenyl]-4-yl)oxy)-4-methylpentan-2-yl)amino)benzamido)propanoic Acid], for which, on glucagon receptor (GCGR), the IC50 worked out at 262 nM. For the same molecule, the “IC50 cAMP” value in assay [1] is 816 nM.

Consider `CC(C)C[C@@H](COc1cc(F)c(-c2cc3ccccc3o2)c(F)c1)Nc1ccc(C(=O)NCCC(=O)O)cc1` [Compound 7-10, (S)-3-(4-((1-(4-(benzofuran-2-yl)-3,5-difluorophenoxy)-4-methylpentan-2-yl)amino)benzamido)propanoic Acid], for which, on glucagon receptor (GCGR), the IC50 amounted to 145 nM. For the same molecule, the “IC50 cAMP” value in assay [1] is recorded as 730.9 nM.

For `CC(C)[C@@H](COc1cc(F)c(-c2ccc(Cl)cc2Cl)c(F)c1)Nc1ccc(C(=O)NCCC(=O)O)cc1` [Compound 7-11, (S)-3-(4-((1-((2′,4′-dichloro-2,6-difluoro-[1,1′-biphenyl]-4-yl)oxy)-3-methylbutan-2-yl)amino)benzamido)propanoic Acid], the IC50 at glucagon receptor (GCGR) came to 74 nM. In assay [1], the “IC50 cAMP” value was determined as 209 nM.

Regarding `CC(C)[C@@H](COc1ccc(-c2ccc(C(F)(F)F)cc2F)c(F)c1)Nc1ccc(C(=O)NCCC(=O)O)cc1` [Compound 8-1, (S)-3-(4-((1-((2,2′-difluoro-4′-(trifluoromethyl)-[1,1′-biphenyl]-4-yl)oxy)-3-methylbutan-2-yl)amino)benzamido)propanoic Acid], at glucagon receptor (GCGR), the half-inhibitory concentration (IC50) came to 112 nM. Moreover, in assay [1], the “IC50 cAMP” value was determined as 61.9 nM.

At glucagon receptor (GCGR), `CC(C)[C@@H](COc1ccc(-c2ccc(C(F)(F)F)cc2F)c(F)c1)Nc1ccc(C(=O)NCCS(=O)(=O)O)cc1` [Compound 8-2, (S)-2-(4-((1-((2,2′-difluoro-4′-(trifluoromethyl)-[1,1′-biphenyl]-4-yl)oxy)-3-methylbutan-2-yl)amino)benzamido)ethane-1-sulfonic Acid] returned a half-inhibitory concentration (IC50) of 1710 nM. The “IC50 cAMP” value in assay [1] stood at 12144 nM.

The molecule `CC(C)[C@@H](COc1ccc(-c2cc3ccccc3o2)c(F)c1)Nc1ccc(C(=O)NCCC(=O)O)cc1` [Compound 8-3, (S)-3-(4-((1-(4-(benzofuran-2-yl)-3-fluorophenoxy)-3-methylbutan-2-yl)amino)benzamido)propanoic Acid] returned a 50% inhibitory concentration (IC50) on glucagon receptor (GCGR) of 83 nM. Besides, the “IC50 cAMP” value in assay [1] is reported as 84.4 nM.

In turn, `CC(C)[C@@H](COc1ccc(-c2cc3ccccc3o2)c(F)c1)Nc1ccc(C(=O)NCCS(=O)(=O)O)cc1` [Compound 8-4, (S)-2-(4-((1-(4-(benzofuran-2-yl)-3-fluorophenoxy)-3-methylbutan-2-yl)amino)benzamido)ethane-1-sulfonic Acid] had a half-inhibitory concentration (IC50) on glucagon receptor (GCGR) of 1720 nM. The “IC50 cAMP” value in assay [1] was determined as 10292 nM.

`CC(C)[C@@H](COc1ccc(-c2ccc(C(F)(F)F)cc2Cl)c(F)c1)Nc1ccc(C(=O)NCCC(=O)O)cc1` [Compound 8-5, (S)-3-(4-((1-((2′-chloro-2-fluoro-4′-(trifluoromethyl)-[1,1′-biphenyl]-4-yl)oxy)-3-methylbutan-2-yl)amino)benzamido)propanoic Acid] yielded a concentration for half-maximal inhibition (IC50) on glucagon receptor (GCGR) of 75 nM. Also, in assay [1], the “IC50 cAMP” value is 85 nM.

For `CC(C)C[C@@H](COc1ccc(-c2ccc(C(F)(F)F)cc2F)c(F)c1)Nc1ccc(C(=O)NCCC(=O)O)cc1` [Compound 8-6, (S)-3-(4-((1-((2,2′-difluoro-4′-(trifluoromethyl)-[1,1′-biphenyl]-4-yl)oxy)-4-methylpentan-2-yl)amino)benzamido)propanoic Acid], the IC50 at glucagon receptor (GCGR) is 172 nM. Also, in assay [1], the “IC50 cAMP” value turned out to be 428 nM.

Take `CC[C@H](C)[C@@H](COc1ccc(-c2cc3ccccc3o2)c(F)c1)Nc1ccc(C(=O)NCCC(=O)O)cc1` [Compound 8-7, 3-(4-(((2S,3S)-1-(4-(benzofuran-2-yl)-3-fluorophenoxy)-3-methylpentan-2-yl)amino)benzamido)propanoic Acid]: the IC50 on glucagon receptor (GCGR) amounted to 186 nM. For the same molecule, in assay [1], the “IC50 cAMP” value amounted to 129 nM.

Take `CC[C@H](C)[C@@H](COc1ccc(-c2ccc(C(F)(F)F)cc2Cl)c(F)c1)Nc1ccc(C(=O)NCCC(=O)O)cc1` [Compound 8-8, 3-(4-(((2S,3S)-1-((2′-chloro-2-fluoro-4′-(trifluoromethyl)-[1,1′-biphenyl]-4-yl)oxy)-3-methylpentan-2-yl)amino)benzamido)propanoic Acid]: the half-maximal inhibitory concentration (IC50) at glucagon receptor (GCGR) turned out to be 277 nM. In addition, the “IC50 cAMP” value in assay [1] was found to be 500 nM.

Molecule `CC(C)[C@@H](COc1ccc(-c2ccc(Cl)cc2Cl)c(F)c1)Nc1ccc(C(=O)NCCC(=O)O)cc1` [Compound 8-9, (S)-3-(4-((1-((2′,4′-dichloro-2-fluoro-[1,1′-biphenyl]-4-yl)oxy)-3-methylbutan-2-yl)amino)benzamido)propanoic Acid] came in with a half-inhibitory concentration (IC50) at glucagon receptor (GCGR) of 145 nM. In assay [1], the “IC50 cAMP” value is recorded as 365 nM.

Take `CC[C@H](C)[C@@H](COc1ccc(-c2ccc(C(F)(F)F)cc2F)c(F)c1)Nc1ccc(C(=O)NCCC(=O)O)cc1` [Compound 8-10, 3-(4-(((2S,3S)-1-((2,2′-difluoro-4′-(trifluoromethyl)-[1,1′-biphenyl]-4-yl)oxy)-3-methylpentan-2-yl)amino)benzamido)propanoic Acid]: the concentration for half-maximal inhibition (IC50) on glucagon receptor (GCGR) stood at 186 nM. The “IC50 cAMP” value in assay [1] is 353.2 nM.

The molecule `CC[C@H](C)[C@@H](COc1ccc(-c2ccc(Cl)cc2Cl)c(F)c1)Nc1ccc(C(=O)NCCC(=O)O)cc1` [Compound 8-11, 3-(4-(((2S,3S)-1-((2′,4′-dichloro-2-fluoro-[1,1′-biphenyl]-4-yl)oxy)-3-methylpentan-2-yl)amino)benzamido)propanoic Acid] showed a half-maximal inhibitory concentration (IC50) on glucagon receptor (GCGR) of 51 nM. Also, the “IC50 cAMP” value in assay [1] is given as 269.1 nM.

Regarding `CC(C)[C@@H](COc1ccc(-c2cc(Cl)cc(Cl)c2)c(F)c1)Nc1ccc(C(=O)NCCC(=O)O)cc1` [Compound 8-12, (S)-3-(4-((1-((3′,5′-dichloro-2-fluoro-[1,1′-biphenyl]-4-yl)oxy)-3-methylbutan-2-yl)amino)benzamido)propanoic Acid], the concentration for half-maximal inhibition (IC50) at glucagon receptor (GCGR) was 227 nM. Further, the “IC50 cAMP” value in assay [1] was determined as 1243 nM.

Molecule `CCCC[C@@H](COc1ccc(-c2cc3ccccc3o2)c(F)c1)Nc1ccc(C(=O)NCCC(=O)O)cc1` [Compound 8-13, (S)-3-(4-((1-(4-(benzofuran-2-yl)-3-fluorophenoxy)hexan-2-yl)amino)benzamido) propanoic Acid] yielded an IC50 on glucagon receptor (GCGR) of 44 nM. Also, the “IC50 cAMP” value in assay [1] was 84 nM.
